The record followed here is patent US20180369195A1, “COMBINATION THERAPY FOR TREATMENT OF MELANOMA” (The Regents of the University of California, priority 2015, published 2018).

Experiment [1] deals with G-361 cell-derived tumor xenografts. Description: G-361 melanoma tumor xenograft growth in athymic nude mice. Type of experiment: in vivo. As to the method:
Approximately 1 million G361 melanoma cells in a total volume of 0.1 ml of Matrigel were injected subcutaneously into each lateral flank of NIH III athymic nude mice. The resulting tumors were allowed to grow to a mean starting volume of 146±10 mm^3. […] The resulting tumor volumes were measured every other day for four weeks using calipers. The tumor volumes were calculated using the standard formula: (Width×Length)/2, and changes in tumor volumes were calculated using the formula: 100+{(Tf−Ti)/Ti×100}, where Tf is the final mean tumor volume and Ti is the initial mean tumor volume. At terminal sacrifice, tumor xenografts were harvested, and a portion of each tumor was fixed in 4% para-formaldehyde for 1 hour at room temperature, followed by a phosphate-buffered saline (PBS) wash and subsequently immersed in […] overnight at 4° C. The resulting tissues were embedded in OCT and 10 μm thin sections were taken for immunofluorescence studies.

Another experiment relates to G-361 melanoma cells. Description: CCK-8 proliferation assay, G-361. Type of experiment: cell-based, human. As to the method: (§1) The same treatment regime was repeated on multiple melanoma cell lines with 20 μM 1-benzyl I3C and 200 μM I3C for 48 hours to compare the relative sensitivities of the different cell lines with distinct mutation profiles to 1-benzyl I3C and I3C. Cells were treated with 20 μM 1-benzyl I3C every 24 hours for 72 hours and harvested at 24, 48 and 72 hours for western blot and flow cytometric analysis. Cells were treated with 20 μM LiCl or 10 μM BIO for 48 hours before harvesting them for western blots.
(§2) To study the effect of I3C, cells were treated with or without 200 μM I3C every 24 hours for 72 hours and harvested at 24, 48 and 72 hours for western blot and flow cytometric analysis.
(§3) Subsequently inhibition of proliferation was assessed using Cell counting Kit-8 (Dojindo) as per the protocol in the user's manual. Briefly, 50 μl of the CCK-8 solution was added to each well along with 450 μl media and incubated for 2-3 hours. The absorbance was read at 450 nm and % inhibition was calculated for each condition standardizing DMSO to zero using the formula: [(100−Value of treatment/Value of DMSO treated control)×100]

A further experiment relates to DM738 melanoma cells. In words: CCK-8 proliferation assay, DM738. Format: cell-based, human. How it is done: as §1, §2, §3
(Tetrazolium assays rely on reduction of a dye to a coloured formazan, in cell work by metabolically active cells.)

The test system of another experiment is SK-MEL-2 cells. In words: CCK-8 proliferation assay, SK-MEL-2. The settings on record: for antiproliferation in wild-type BRAF cells: 48 hours. Format: cell-based, human. How it is done: […] Cells were treated with 20 μM 1-benzyl I3C every 24 hours for 72 hours and harvested at 24, 48 and 72 hours for western blot and flow cytometric analysis. Cells were treated with 20 μM LiCl or 10 μM BIO for 48 hours before harvesting them for western blots.
as §3

The subject of another experiment is MITF-M. In words: MITF-M protein levels in cultured melanoma cells (western blot, immunofluorescence). Format: cell-based, human. How it is done:
Western Blot analyses of samples electrophoretically fractionated on 12% acrylamide gels were carried out as previously described (Wagle et al., J. Clin. Oncol. 2011. 29(22):3085-3096; Nguyen et al., Chem. Biol. Interact. 2010. 186(3):255-266). Enhanced chemiluminescence (ECL) Lightening reagents were used to visualize the primary antibody bound protein bands in nitrocellulose membranes and the results captured on ECL Autoradiography Film (GE Healthcare, Piscataway, N.J.). The western blots employed the following primary antibodies: mouse anti-MITF-M (Thermo-scientific), mouse anti-HSP 90 (BD Biosciences), mouse anti-CDK2, rabbit anti-CDK4, rabbit anti-CDK-6, mouse anti-rabbit BRAF, goat anti-LEF-1, rabbit anti-AXIN, mouse anti-BCL2, (Santa Cruz), rabbit anti-P21, mouse anti-Cyclin D1, rabbit anti-MEK-p, rabbit anti-MEK1/2, rabbit anti-GSK3β rabbit anti-LRP6, rabbit anti-LRP6-phospho (Cell signaling), mouse anti-β-catenin (Invitrogen).
(A western blot detects proteins with antibodies after separation by electrophoresis.)

The next experiment concerns MITF-M promoter. Description: MITF-M promoter luciferase reporter assay. Format: cell-based, human. The settings on record: G361 cells, 24 hours. How it is done: G361 Melanoma cells were cultured to approximately 80% confluency in 6 well adherent culture plates in triplicates for each experimental condition for 24 hours. The cells were then transiently transfected with either a wild-type pGL2-pMITF-333/+120-luciferase reporter plasmid or a similar plasmid with the LEF-1/TCF binding site mutated at −199. pGL2-pMITF-333/+120-ΔLEF-1-luciferase, (ALEF-1) was generated using the following primers: LEF-1 forward, 5′-[…]-3′ (SEQ ID NO:5) and LEF-1 reverse, 5′-[…]-3′ (SEQ ID NO:6).
PCR conditions used were as follows: 30 s hotstart at 95° C., 30 s at 95° C., 1 min at 55° C., 8 min at 68° C. for 16 cycles. Mutagenesis was performed using QuickChange II kit (Aligent) per the manufacturer's instructions. PCR products were extracted and purified using QIAquick Gel Extraction Kit (Qiagen). Sequence was confirmed by automated DNA sequencing (University of California Berkeley Sequencing Facility). […] 20 μl of supernatant from each sample was combined with 100 μl luciferase substrate (Promega) and emitted fluorescence was measured using luminometer, Lumat LB 9507 (EG&G Berthold) and the relative light units (RLU) were recorded. The RLU/μg for each sample was calculated by dividing the data obtained with their specific protein concentration determined by a Bradford assay using 1× BioRad Protein Assay reagent and measuring O.D at 595 nm.
For orientation: A reporter such as luciferase makes a cellular process visible.

[2] abbreviates: 200 μM I3C, 72 hours, BRAF-V600E.

“Also recorded” adds a separate entry of the source.

As for `OCc1cn(Cc2ccccc2)c2ccccc12` [1-benzyl I3C, 1-benzyl indole-3-carbinol], the tumor growth result in experiment [1] (1-benzyl I3C 20 mg/kg body weight subcutaneously everyday, 4-week time course, vs vehicle) is recorded as “strongly attenuated tumor growth”. Also, the “size of the residual tumors at termination of treatment” value in experiment [1] (1-benzyl I3C 20 mg/kg, week 4) is given as “significantly smaller than the vehicle control”. The “fold lower concentration than I3C” value with G-361 melanoma cells (48 hours) was 10-20 fold; in the experiment with G-361 melanoma cells (48 hours, listed as 1-Benzyl I3C), greater than 10 fold; with DM738 melanoma cells (48 hours) it was 10-20 fold. In addition, the “optimum concentration for antiproliferation” value with G-361 melanoma cells (48 hours) and in the experiment on DM738 melanoma cells (48 hours) was 10 to 20 µM each time. Also, the “antiproliferation compared with I3C” value in the experiment with G-361 melanoma cells (varying doses, 48 hours) is given as “significantly greater antiproliferation than I3C”; in the experiment with DM738 melanoma cells (varying doses, 48 hours), “significantly greater antiproliferation than I3C”. Further, the “antiproliferation in wild-type BRAF cells” value in the experiment on SK-MEL-2 cells is “showed antiproliferation”. For the same compound, the “MITF-M protein levels (western blot)” value in the experiment on MITF-M (G361 and DM738 cells, 1-benzyl I3C, 24, 48, 72 hours) is recorded as “significant downregulation of MITF-M”; with MITF-M (SK-MEL-2 cells (WT BRAF), 1-benzyl I3C, 24, 48, 72 hours) it was “significant inhibitory effect on MITF-M protein levels”. Also, the “MITF-M promoter activity (luciferase reporter, WT)” value with MITF-M promoter (20 μM 1-benzyl I3C) was “Luciferase activity was significantly abrogated”.

For `OCc1c[nH]c2ccccc12` [I3C, indole-3-carbinol], the tumor growth entry in experiment [1] (I3C 200 mg/kg body weight injected daily, four-week course, vs DMSO vehicle) was “strongly inhibited tumor growth”. For the same compound, the “sensitivity to anti-proliferative effects” value in the experiment on G-361 melanoma cells (setting [2]) was “Most sensitive”; in the experiment with DM738 melanoma cells (setting [2]), “Most sensitive”; in the experiment with SK-MEL-2 cells (200 μM I3C, 72 hours, wild type BRAF), “significantly less sensitive”. The same compound came in with a proliferative arrest in the experiment with G-361 melanoma cells (200 μM I3C, submaximal 24 hours, empty vector transfected or untransfected cells) of 60%. In addition, the “optimum concentration for antiproliferation” value in the experiment on G-361 melanoma cells (48 hours) and in the experiment on DM738 melanoma cells (48 hours) was 200 to 300 µM in each case. Moreover, in the experiment on SK-MEL-2 cells, the “antiproliferation in wild-type BRAF cells” value is “ineffective”. In addition, the “MITF-M protein levels (western blot)” value in the experiment on MITF-M (G-361 and DM738 cells, varying concentrations of I3C, 48 hours) is given as “strongly down-regulated MITF-M levels”; in the experiment on MITF-M (G-361 cells, 48 hours, 200 μM I3C, 10 μM Vemurafenib or 10 μM U0126), “down regulated”; in the experiment with MITF-M (SK-MEL-2 cells (wild type BRAF), I3C), “expressed high levels of MITF-M protein at all concentrations of I3C; also recorded: no downregulation of MITF-M levels”. For the same compound, the “MITF-M promoter activity (−333/+120 luciferase reporter, WT)” value in the experiment on MITF-M promoter (200 μM I3C) is reported as “strongly down regulated MITF-M promoter activity”.
